This is an account of results in PMC6351562, “Structure, function, and inhibition of drug reactivating human gut microbial β-glucuronidases” (Scientific Reports, 2019).

SMILES strings stand for the structures. Read-outs that look alike come from different tables or passages of the source.

For experiment [1], the target named is T1, Streptococcus agalactiae GUS (SaGUS) (Streptococcus agalactiae serotype V, UniProt Q8E0N2).
T1 construct: 6x His; made in house
The experiment can be described thus: In vitro inhibition assay (pNPG hydrolysis). It counts as biochemical. The settings on record: for IC50: pNPG 900 µM.

Experiment [2] deals with Clostridium perfringens GUS (CpGUS) (Clostridium perfringens, UniProt Q8VNV4). Put plainly: biochemical. It counts as biochemical.
Experiment [3] concerns the target T2, Lactobacillus rhamnosus GUS (LrGUS) (Lacticaseibacillus rhamnosus, UniProt A0A2A5L2J1).
T2 sequence (A0A2A5L2J1 1-603): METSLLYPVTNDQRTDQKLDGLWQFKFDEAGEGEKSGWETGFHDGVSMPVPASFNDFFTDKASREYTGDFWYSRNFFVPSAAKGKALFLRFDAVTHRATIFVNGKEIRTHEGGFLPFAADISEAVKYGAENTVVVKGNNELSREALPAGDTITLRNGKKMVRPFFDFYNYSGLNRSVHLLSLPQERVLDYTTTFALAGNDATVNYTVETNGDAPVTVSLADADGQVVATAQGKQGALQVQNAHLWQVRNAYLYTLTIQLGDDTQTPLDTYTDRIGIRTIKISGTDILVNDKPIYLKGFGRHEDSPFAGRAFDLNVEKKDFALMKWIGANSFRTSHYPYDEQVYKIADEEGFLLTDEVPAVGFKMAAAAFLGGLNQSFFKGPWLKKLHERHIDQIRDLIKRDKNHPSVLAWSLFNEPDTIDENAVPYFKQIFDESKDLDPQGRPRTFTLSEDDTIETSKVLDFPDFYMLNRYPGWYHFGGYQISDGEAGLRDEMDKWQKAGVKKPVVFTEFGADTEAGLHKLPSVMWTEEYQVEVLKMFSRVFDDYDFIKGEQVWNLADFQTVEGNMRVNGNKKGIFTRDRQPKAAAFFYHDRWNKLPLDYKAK
The experiment can be described thus: In vitro inhibition assay (pNPG hydrolysis). It counts as biochemical.

The target of experiment [4] is Bacteroides fragilis GUS (BfGUS) (Bacteroides fragilis, UniProt Q5LIC7). Put plainly: In vitro inhibition assay (pNPG hydrolysis). It counts as biochemical.
Bacteroides fragilis GUS (BfGUS), sequence (Q5LIC7 whole entry): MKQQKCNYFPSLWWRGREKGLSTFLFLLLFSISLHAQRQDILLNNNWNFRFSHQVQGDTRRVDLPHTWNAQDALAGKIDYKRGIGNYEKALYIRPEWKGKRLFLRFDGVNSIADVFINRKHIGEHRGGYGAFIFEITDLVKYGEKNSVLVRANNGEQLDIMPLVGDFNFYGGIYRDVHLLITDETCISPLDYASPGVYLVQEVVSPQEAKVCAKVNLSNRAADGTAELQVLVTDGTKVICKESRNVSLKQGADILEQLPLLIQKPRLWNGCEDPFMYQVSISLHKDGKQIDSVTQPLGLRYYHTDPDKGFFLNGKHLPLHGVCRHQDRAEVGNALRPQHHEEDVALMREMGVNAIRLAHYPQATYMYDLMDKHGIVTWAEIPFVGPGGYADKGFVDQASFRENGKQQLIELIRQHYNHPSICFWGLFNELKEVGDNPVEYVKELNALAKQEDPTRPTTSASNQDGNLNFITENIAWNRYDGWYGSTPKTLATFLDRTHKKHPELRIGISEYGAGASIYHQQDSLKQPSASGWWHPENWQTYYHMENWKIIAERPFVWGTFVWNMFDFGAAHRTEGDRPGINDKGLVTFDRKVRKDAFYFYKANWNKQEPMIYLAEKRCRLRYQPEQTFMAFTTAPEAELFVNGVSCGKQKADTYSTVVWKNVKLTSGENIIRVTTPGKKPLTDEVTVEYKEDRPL
The target in experiment [5] is T3, Bacteroides uniformis GUS (BuGUS) (Bacteroides uniformis, UniProt A0A078SUX9).
T3 sequence (A0A078SUX9 32-886): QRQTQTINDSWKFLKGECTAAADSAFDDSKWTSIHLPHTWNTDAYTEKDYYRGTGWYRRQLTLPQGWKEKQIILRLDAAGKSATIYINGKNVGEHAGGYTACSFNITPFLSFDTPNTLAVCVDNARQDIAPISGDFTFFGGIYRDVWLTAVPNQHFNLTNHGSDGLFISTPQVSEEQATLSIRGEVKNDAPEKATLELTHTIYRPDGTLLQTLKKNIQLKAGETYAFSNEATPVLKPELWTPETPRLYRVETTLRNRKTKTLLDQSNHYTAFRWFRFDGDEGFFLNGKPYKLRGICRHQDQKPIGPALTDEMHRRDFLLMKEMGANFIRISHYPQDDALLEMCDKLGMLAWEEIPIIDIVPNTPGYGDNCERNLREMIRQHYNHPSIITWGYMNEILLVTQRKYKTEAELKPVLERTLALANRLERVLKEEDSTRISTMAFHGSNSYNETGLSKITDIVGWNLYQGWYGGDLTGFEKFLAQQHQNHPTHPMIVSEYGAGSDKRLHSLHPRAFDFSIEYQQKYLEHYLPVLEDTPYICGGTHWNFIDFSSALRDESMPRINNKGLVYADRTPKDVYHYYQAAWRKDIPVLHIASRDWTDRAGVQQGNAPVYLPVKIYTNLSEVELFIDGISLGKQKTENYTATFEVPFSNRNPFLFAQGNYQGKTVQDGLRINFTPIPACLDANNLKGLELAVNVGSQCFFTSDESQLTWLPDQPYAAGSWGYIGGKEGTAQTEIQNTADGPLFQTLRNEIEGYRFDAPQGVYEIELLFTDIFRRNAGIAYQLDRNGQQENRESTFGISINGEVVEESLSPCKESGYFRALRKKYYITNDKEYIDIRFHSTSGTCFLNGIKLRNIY
The experiment can be described thus: In vitro inhibition assay (pNPG hydrolysis). It counts as biochemical.

For experiment [6], the target named is T4, Bacteroides dorei GUS (BdGUS) (Phocaeicola dorei, UniProt I9FNR0).
T4 sequence (I9FNR0 21-875): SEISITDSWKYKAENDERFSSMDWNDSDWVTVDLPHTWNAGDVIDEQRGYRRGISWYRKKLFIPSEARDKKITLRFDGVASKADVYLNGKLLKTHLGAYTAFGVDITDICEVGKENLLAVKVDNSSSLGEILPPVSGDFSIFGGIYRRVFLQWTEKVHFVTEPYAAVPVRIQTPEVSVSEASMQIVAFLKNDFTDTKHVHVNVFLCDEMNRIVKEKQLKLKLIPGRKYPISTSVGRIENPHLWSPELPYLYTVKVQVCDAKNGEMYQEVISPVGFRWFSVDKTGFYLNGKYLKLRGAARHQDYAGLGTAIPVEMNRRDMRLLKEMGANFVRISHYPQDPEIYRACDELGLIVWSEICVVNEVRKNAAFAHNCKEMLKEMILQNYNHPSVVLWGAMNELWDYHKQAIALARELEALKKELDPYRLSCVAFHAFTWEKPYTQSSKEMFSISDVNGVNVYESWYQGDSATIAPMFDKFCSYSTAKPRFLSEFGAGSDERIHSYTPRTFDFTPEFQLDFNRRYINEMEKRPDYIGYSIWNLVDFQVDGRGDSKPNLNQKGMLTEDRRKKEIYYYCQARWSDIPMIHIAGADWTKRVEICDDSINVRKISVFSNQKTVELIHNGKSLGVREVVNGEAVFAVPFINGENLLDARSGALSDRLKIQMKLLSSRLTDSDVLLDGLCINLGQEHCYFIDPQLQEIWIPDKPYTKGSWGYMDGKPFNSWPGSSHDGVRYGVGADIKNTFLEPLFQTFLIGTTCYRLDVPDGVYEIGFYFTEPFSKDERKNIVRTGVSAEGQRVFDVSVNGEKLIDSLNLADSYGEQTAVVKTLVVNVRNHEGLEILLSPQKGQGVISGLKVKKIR
Put plainly: In vitro inhibition assay (pNPG hydrolysis). It counts as biochemical. The following applies: for IC50: pNPG 900 µM.

The target in the next experiment is E. coli GUS (EcGUS) (Escherichia coli, UniProt P05804). Also on record: method as in PMID 21051639, PMID 26364932, PMID 30062115. The following applies: earlier work; cited from earlier work.
E. coli GUS (EcGUS), sequence (P05804 whole entry): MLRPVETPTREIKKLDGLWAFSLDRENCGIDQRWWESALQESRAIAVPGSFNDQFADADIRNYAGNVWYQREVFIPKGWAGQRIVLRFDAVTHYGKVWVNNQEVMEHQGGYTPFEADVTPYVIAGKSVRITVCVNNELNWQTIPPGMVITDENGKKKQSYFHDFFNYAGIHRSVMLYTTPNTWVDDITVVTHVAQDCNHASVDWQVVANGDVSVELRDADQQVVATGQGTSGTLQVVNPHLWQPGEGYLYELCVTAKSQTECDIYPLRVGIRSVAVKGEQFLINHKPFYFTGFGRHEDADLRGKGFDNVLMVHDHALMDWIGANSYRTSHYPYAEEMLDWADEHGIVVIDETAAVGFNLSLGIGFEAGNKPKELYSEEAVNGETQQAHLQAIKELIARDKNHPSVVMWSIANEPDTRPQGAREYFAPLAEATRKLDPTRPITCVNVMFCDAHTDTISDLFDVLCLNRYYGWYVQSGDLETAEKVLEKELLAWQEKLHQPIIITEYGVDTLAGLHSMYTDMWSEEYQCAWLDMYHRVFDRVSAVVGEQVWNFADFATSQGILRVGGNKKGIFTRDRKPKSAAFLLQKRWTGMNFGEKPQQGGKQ
Where [7] appears, read: pH 7.5, 1 hour end point, read-out: UNC10201652 (IC50, nM) pH 7.5.
Where [8] appears, read: pH 6.5, read-out: UNC10201652 (IC50, nM) pH 6.5.
The mark [9] stands for this setting: pH 7.5, pNPG 900 µM, read-out: UNC10201652 (IC50, nM) pH 7.5.
The mark [10] stands for this setting: read-out: UNC10201652 (IC50, nM) pH 6.5.
Where [11] appears, read: Inhibitor 1 (IC50, nM) pH 6.5, pH 6.5.
[12] abbreviates: Inhibitor 1 (IC50, nM) pH 7.5, pH 7.5.
Setting [13] is: read-out: Inhibitor 1 (IC50, nM) pH 7.5, pH 7.5, pNPG 900 µM.

T1 sequence (Q8E0N2 whole entry): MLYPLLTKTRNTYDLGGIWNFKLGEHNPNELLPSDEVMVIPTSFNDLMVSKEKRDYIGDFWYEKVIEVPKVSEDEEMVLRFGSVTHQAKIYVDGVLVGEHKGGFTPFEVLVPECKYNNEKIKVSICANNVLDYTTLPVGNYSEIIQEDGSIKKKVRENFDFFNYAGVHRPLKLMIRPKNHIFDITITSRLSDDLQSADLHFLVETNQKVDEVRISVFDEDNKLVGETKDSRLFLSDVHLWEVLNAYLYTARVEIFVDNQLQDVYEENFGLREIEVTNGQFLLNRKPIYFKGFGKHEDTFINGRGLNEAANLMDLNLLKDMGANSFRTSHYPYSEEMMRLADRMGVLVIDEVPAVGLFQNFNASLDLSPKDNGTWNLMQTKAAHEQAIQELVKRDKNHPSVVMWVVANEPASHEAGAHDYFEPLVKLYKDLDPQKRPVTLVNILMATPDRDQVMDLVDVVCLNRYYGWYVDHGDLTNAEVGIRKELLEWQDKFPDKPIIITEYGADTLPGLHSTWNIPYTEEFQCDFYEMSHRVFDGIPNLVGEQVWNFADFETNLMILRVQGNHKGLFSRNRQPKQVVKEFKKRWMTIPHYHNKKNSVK

Take `C1CCc2c(c(N3CCOCC3)nc3sc4c(N5CCNCC5)nnnc4c23)C1` [UNC10201652]: the IC50 is 450 ± 30 nM in experiment [1] (pH 6.5, 1 hour end point, read-out: UNC10201652 (IC50, nM) pH 6.5); 133 ± 3 nM in experiment [1] (setting [7]); 26 to 160 nM in experiment [2] (IC50); 160 ± 10 nM in experiment [2] (setting [8]); 26 ± 3 nM in experiment [2] (pH 7.5, read-out: UNC10201652 (IC50, nM) pH 7.5); greater than 100000 nM in experiment [3] (setting [9]). Besides, the IC50 in experiment [3] (setting [10]), in experiment [4] (setting [9]), in experiment [4] (setting [10]), in experiment [5] (setting [9]), in experiment [5] (setting [10]) and in experiment [6] (setting [8]) was greater than 100000 nM in each case. Further, in experiment [6] (setting [7]), the 50% inhibitory concentration (IC50) was greater than 25000 nM. The “decrease in potency from pH 7.5 to pH 6.5” value in experiment [2] stood at 6 fold. In addition, the “inhibition (in words)” value in experiment [4] (UNC10201652, text in picture of Fig. 7b) was “No Inhibition”; in experiment [5] (UNC10201652, text in picture of Fig. 7c) it was “No Inhibition”. Besides, in experiment [6] (100 µM, pH 6.5, read-out: inhibition at 100 µM UNC10201652), the inhibition at 100 µM was less than 80%. Besides, the “inhibition of EcGUS (in words)” value at E. coli GUS (EcGUS) is listed as “potent”.
For the compound `CCOc1ccc(NC(=S)N(CCO)Cc2cc3cc(C)cc(C)c3[nH]c2=O)cc1` [Inhibitor 1], the half-maximal inhibitory concentration (IC50) in experiment [1] (setting [11]) was greater than 25000 nM; in experiment [1] (setting [12]) it was greater than 25000 nM; in experiment [2] (Inhibitor 1 (IC50, nM) pH 6.5), greater than 100000 nM; in experiment [2] (Inhibitor 1 (IC50, nM) pH 7.5), greater than 100000 nM; in experiment [3], greater than 100000 nM; in experiment [3] (setting [13]), greater than 100000 nM. Further, the IC50 in experiment [4], in experiment [4] (setting [13]), in experiment [5], in experiment [5] (setting [13]), in experiment [6] (setting [11]) and in experiment [6] (setting [12]) was greater than 100000 nM in each case. In experiment [1] (read-out: inhibition at 100 µM Inhibitor 1, 100 µM, pH 6.5 and 7.5), the inhibition at 100 µM is no less than 80%. The “inhibition of EcGUS (in words)” value on E. coli GUS (EcGUS) is given as “potent”.

A word on the IC50: it is the concentration needed to halve the response being measured. A word on the inhibition: it is the change of the read-out against control, counted positive when it falls.
